Where “and” joins values, the source holds several entries; their conditions need not be identical. Equal values may be shown once. Toxic doses and inconclusive results are not listed. Rule for the calls: active = survival T/C of 150% or more; inactive = T/C below 125% in these data.
Tested on: P388 leukemia ip, CD2F1 mice, survival T/C
Assay: NCI In Vivo Anticancer Drug Screen. Data for tumor model P388 Leukemia (intraperitoneal) in CD2F1 (CDF1) mice
Details: endpoint: median survival time, higher = longer survival
Outline: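 Mice carrying the transplanted tumor received test compound or vehicle. Survival was recorded in each group, and the value is the treated-group measurement divided by that of the vehicle-treated control group.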

[1] = dose: 6.25 mg/kg/injection, schedule: Q01DX009 (ip), vehicle: saline with Tween-80
[2] = dose: 12.5 mg/kg/injection, schedule: Q01DX009 (ip), vehicle: saline with Tween-80
[3] = dose: 25.0 mg/kg/injection, schedule: Q01DX009 (ip), vehicle: saline with Tween-80
[4] = dose: 50.0 mg/kg/injection, schedule: Q01DX009 (ip), vehicle: saline with Tween-80
[5] = dose: 100.0 mg/kg/injection, schedule: Q01DX009 (ip), vehicle: saline with Tween-80
[6] = dose: 200.0 mg/kg/injection, schedule: Q01DX009 (ip), vehicle: saline with Tween-80
[7] = dose: 400.0 mg/kg/injection, schedule: Q01DX009 (ip), vehicle: saline with Tween-80
[8] = dose: 50.0 mg/kg/injection, schedule: Q01DX009 (ip), vehicle: saline
[9] = dose: 100.0 mg/kg/injection, schedule: Q04DX003 (ip), vehicle: saline with Tween-80

Measured: T/C

CN[C@H]1CC[C@]23C[C@]24CC[C@]2(C)[C@@H]([C@H](C)N(C)C)CC[C@@]2(C)[C@@H]4CC[C@H]3C1(C)C
inactive: dose: 3.12 mg/kg/injection, schedule: Q01DX009 (ip), vehicle: saline with Tween-80 112 % of control | [1] 100 % of control | [2] 102 % of control | [3] 102 % of control | [4] 118 % of control

C/C=C1/CN2CCc3c4n(c5ccccc35)[C@H](C(=O)OC)[C@H]1C[C@@H]42
inactive: dose: 12.5 mg/kg/injection, schedule: Q01DX005 (ip), vehicle: acid diluted with saline 107 % of control | dose: 25.0 mg/kg/injection, schedule: Q01DX005 (ip), vehicle: acid diluted with saline 94 % of control | dose: 50.0 mg/kg/injection, schedule: Q01DX005 (ip), vehicle: acid diluted with saline 98 % of control | dose: 100.0 mg/kg/injection, schedule: Q01DX005 (ip), vehicle: acid diluted with saline 100 % of control

COc1ccc(-c2nnc(-c3ccc(Cl)cc3)c(=O)[nH]2)cc1
inactive: dose: 6.25 mg/kg/injection, schedule: Q01DX005 (ip), vehicle: saline with Tween-80 91 % of control | dose: 12.5 mg/kg/injection, schedule: Q01DX005 (ip), vehicle: saline with Tween-80 90 % of control

O=C1C2(Cl)C3CCC4C5CCC3C1(Cl)C5(Cl)C42Cl (stereo not drawn)
inactive: dose: 100.0 mg/kg/injection, schedule: Q04DX002 (ip), vehicle: saline with Tween-80 107 % of control | dose: 200.0 mg/kg/injection, schedule: Q04DX002 (ip), vehicle: saline with Tween-80 100 % of control

CC1N/C(=C/c2ccccc2)C(=O)O1 (stereo not drawn)
inactive: [3] 106 % of control | [4] 110 % of control | [5] 105 % of control and 123 % of control | [6] 117 % of control and 96 % of control

NC(N)=O.NC(N)=O.NC(N)=O.NC(N)=O.NC(N)=O.NC(N)=O.[Fe+3].[O-][Cl+3]([O-])([O-])O
inactive: [4] 96 % of control | [5] 91 % of control | [6] 102 % of control

Cc1ccc(Nc2ccc(Cl)cc2[N+](=O)[O-])cc1
inactive: dose: 15.0 mg/kg/injection, schedule: Q01DX005 (ip), vehicle: Klucel + Tween-80 95 % of control | dose: 30.0 mg/kg/injection, schedule: Q01DX005 (ip), vehicle: Klucel + Tween-80 98 % of control | dose: 60.0 mg/kg/injection, schedule: Q01DX005 (ip), vehicle: Klucel + Tween-80 100 % of control and 94 % of control

CC1C(=O)CCC2(C)CCC(C)(C)CC12 (stereo not drawn)
inactive: [5] 91 % of control | [6] 104 % of control | [7] 95 % of control

CCN(CC)C1C(Br)c2ccccc2C(OC)N1C#N (stereo not drawn)
inactive: dose: 50.0 mg/kg/injection, schedule: Q01DX005 (ip), vehicle: distilled water + Tween-80 + alcohol 103 % of control | dose: 100.0 mg/kg/injection, schedule: Q01DX005 (ip), vehicle: distilled water + Tween-80 + alcohol 107 % of control

O=[N+]([O-])c1cnccc1Nc1ccncc1
inactive: dose: 100.0 mg/kg/injection, schedule: Q01DX001 (ip), vehicle: saline with Tween-80 100 % of control | dose: 200.0 mg/kg/injection, schedule: Q01DX001 (ip), vehicle: saline with Tween-80 100 % of control

CCOc1ccc2ccc3ccc(OCC)nc3c2n1
inactive: dose: 60.0 mg/kg/injection, schedule: Q01DX005 (ip), vehicle: saline with Tween-80 89 % of control | dose: 120.0 mg/kg/injection, schedule: Q01DX005 (ip), vehicle: saline with Tween-80 98 % of control | dose: 240.0 mg/kg/injection, schedule: Q01DX005 (ip), vehicle: saline with Tween-80 95 % of control

CCCCCCCCCCCCCCCC(=O)N(CC#CCN(C(=O)CCCCCCCCCCCCCCC)C(C)CCCN(CC)CC)C(C)CCCN(CC)CC (stereo not drawn)
inactive: dose: 25.0 mg/kg/injection, schedule: Q01DX009 (ip), vehicle: other 97 % of control | dose: 50.0 mg/kg/injection, schedule: Q01DX009 (ip), vehicle: other 101 % of control

O=C(CC1=NC2NN(c3ccccc3)C(=O)C2=C1CC(=O)C(c1ccccc1)c1ccccc1)C(c1ccccc1)c1ccccc1 (stereo not drawn)
inactive: dose: 60.0 mg/kg/injection, schedule: Q01DX005 (ip), vehicle: suspension in saline 98 % of control | dose: 120.0 mg/kg/injection, schedule: Q01DX005 (ip), vehicle: suspension in saline 102 % of control | dose: 240.0 mg/kg/injection, schedule: Q01DX005 (ip), vehicle: suspension in saline 100 % of control

CCCCCCCCCC[N+](C)(C)CC(O)CO (stereo not drawn)
inactive: dose: 12.5 mg/kg/injection, schedule: Q01DX009 (ip), vehicle: saline 94 % of control | dose: 25.0 mg/kg/injection, schedule: Q01DX009 (ip), vehicle: saline 105 % of control | [8] 111 % of control

CC1CN(C(=O)Nc2ccc(Cl)c(Cl)c2)C(=O)O1 (stereo not drawn)
inactive: dose: 100.0 mg/kg/injection, schedule: Q04DX003 (ip), vehicle: Klucel (hydroxypropylcellulose) (HPC) 101 % of control | dose: 200.0 mg/kg/injection, schedule: Q04DX003 (ip), vehicle: Klucel (hydroxypropylcellulose) (HPC) 99 % of control | dose: 400.0 mg/kg/injection, schedule: Q04DX003 (ip), vehicle: Klucel (hydroxypropylcellulose) (HPC) 100 % of control

COc1ccc(C(=NCCO)c2ccc(O)cc2)c(OC)c1
inactive: dose: 50.0 mg/kg/injection, schedule: Q01DX005 (ip), vehicle: saline with Tween-80 104 % of control | dose: 100.0 mg/kg/injection, schedule: Q01DX005 (ip), vehicle: saline with Tween-80 92 % of control | dose: 200.0 mg/kg/injection, schedule: Q01DX005 (ip), vehicle: saline with Tween-80 91 % of control

Cc1c2cccc(Sc3ccccc3)c2c2c3c(cccc13)[S+](c1ccccc1)C2 (stereo not drawn)
inactive: [1] 113 % of control | [2] 115 % of control

CN1C(=O)C2N(C(=O)C1(C)S)c1ccccc1C2(C)C (stereo not drawn)
inactive: [8] 102 % of control | dose: 100.0 mg/kg/injection, schedule: Q01DX009 (ip), vehicle: saline 93 % of control | dose: 200.0 mg/kg/injection, schedule: Q01DX009 (ip), vehicle: saline 101 % of control

C=CCC1OC(COC(=O)c2ccccc2)C(OC(=O)c2ccccc2)C1OC(=O)c1ccccc1 (stereo not drawn)
inactive: dose: 25.0 mg/kg/injection, schedule: Q01DX005 (ip), vehicle: Klucel (hydroxypropylcellulose) (HPC) 112 % of control | dose: 44.5 mg/kg/injection, schedule: Q01DX005 (ip), vehicle: Klucel (hydroxypropylcellulose) (HPC) 114 % of control | dose: 50.0 mg/kg/injection, schedule: Q01DX005 (ip), vehicle: Klucel (hydroxypropylcellulose) (HPC) 117 % of control | dose: 89.0 mg/kg/injection, schedule: Q01DX005 (ip), vehicle: Klucel (hydroxypropylcellulose) (HPC) 120 % of control | dose: 100.0 mg/kg/injection, schedule: Q01DX005 (ip), vehicle: Klucel (hydroxypropylcellulose) (HPC) 118 % of control

CNc1ccc(N=Nc2ccc3ncccc3c2)cc1
inactive: dose: 3.13 mg/kg/injection, schedule: Q01DX009 (ip), vehicle: saline with Tween-80 104 % of control | [1] 95 % of control | [2] 90 % of control | dose: 25.0 mg/kg/injection, schedule: Q04DX003 (ip), vehicle: saline with Tween-80 100 % of control | dose: 50.0 mg/kg/injection, schedule: Q04DX003 (ip), vehicle: saline with Tween-80 90 % of control | [9] 86 % of control

Nc1cc2c(c[n+](Cc3ccccc3)c3ccccc23)c2ccccc12
inactive: dose: 0.2 mg/kg/injection, schedule: Q04DX003 (ip), vehicle: water 105 % of control | dose: 0.39 mg/kg/injection, schedule: Q04DX003 (ip), vehicle: water 102 % of control | dose: 0.78 mg/kg/injection, schedule: Q04DX003 (ip), vehicle: water 102 % of control | dose: 1.56 mg/kg/injection, schedule: Q04DX003 (ip), vehicle: water 105 % of control

CC(=O)OCC1OC(n2cc(C)c(=O)[nH]c2=O)CC1OC(C)=O (stereo not drawn)
inactive: [5] 110 % of control | [9] 100 % of control | [6] 110 % of control | dose: 200.0 mg/kg/injection, schedule: Q04DX003 (ip), vehicle: saline with Tween-80 100 % of control | [7] 110 % of control | dose: 400.0 mg/kg/injection, schedule: Q04DX003 (ip), vehicle: saline with Tween-80 104 % of control
